Activity calls are given as the source filed them. How the calls were made is not given here.
Target: methionyl-tRNA synthetase (Trypanosoma brucei brucei)
Assay: T. brucei MetRS inhibitors, late-stage follow-up, biochemical, luminescence, dose response (AID 686967)
Settings: recombinant T. brucei MetRS, luminescence (ATP depletion)

| IC50 | Structure (SMILES) |
| --- | --- |
| 0.586 µM | CN(Cc1cc(Cl)cc(Cl)c1)[C@H]1C[C@H]2c3[nH]c4ccccc4c3CCN2C(=O)[C@H]1CO |
| 0.429 µM | Oc1c(Cl)cc(Cl)cc1CNc1nc2ccccc2[nH]1 |
| 0.172 µM | O=C(Cn1cc(C(=O)C(=O)N2CCOCC2)c2ccccc21)Nc1cccc(C(F)(F)F)c1 |
| 0.845 µM | CN(CC(=O)Nc1ccc(Cl)cc1)C(=O)c1ccc(-n2cncn2)c([N+](=O)[O-])c1 |
| 1.04 µM | CC(=O)c1c[nH]c(C(=O)NCc2cccc(C(F)(F)F)c2)c1 |
| 0.338 µM | CN1CC(=O)N2C(c3cccc([N+](=O)[O-])c3)c3[nH]c4ccccc4c3C[C@H]2C1=O (some centres undefined) |
| 1.2 µM | O=C(NNC(=O)c1cc(-c2ccc(Cl)c(Cl)c2)nc2ccccc12)Nc1ccccc1 |
| 3.81 µM | COc1ccccc1-n1c(SCC(=O)Nc2ccc(Cl)cc2)nc(O)c(Cc2ccccc2)c1=O |
| inactive | CCO[C@@H]1OC(C(=O)NCc2nc3ccccc3[nH]2)=C[C@H](c2ccc(Br)cc2)[C@H]1CCCO |
| 1.59 µM | O=C(Nc1ccc(F)c(Cl)c1)C1CC(=O)n2c(nc3ccccc32)N1 (centres undefined) |
| 1.58 µM | O=C(NCc1nc2ccccc2[nH]1)C1=C[C@H](c2ccc(Br)cc2)C[C@H](OCCCCO)O1 |
| 3.56 µM | O=C(CCC(=O)Nc1cccc([N+](=O)[O-])c1)NN=Cc1cccs1 |
| 0.604 µM | Clc1ccc(-c2nnc(SCc3nc4ccccc4[nH]3)o2)c(Cl)c1 |
| 6.5 µM | O=C(NCc1nc2ccccc2[nH]1)C1=C[C@H](C2CC2)C[C@H](OCc2ccc(CO)cc2)O1 |
| 6.86 µM | O=C(NCc1nc2ccccc2[nH]1)C1=C[C@H](c2ccccc2)C[C@H](OCc2ccc(CO)cc2)O1 |
| 1.08 µM | O=C(CC=NOCc1ccc([N+](=O)[O-])cc1)Nc1ccc(Cl)cc1 |
| 4.11 µM | CCCCCCCCCC1NC(C(=O)O)Cc2c1[nH]c1ccccc21 (centres undefined) |
| 4.21 µM | Cc1[nH]c2ccc(Br)cc2c(=O)c1CN1CCCCCC1 |
| 0.147 µM | O=C(NCCc1nc2ccccc2[nH]1)c1ccc(Cl)c([N+](=O)[O-])c1 |
| 2.83 µM | CC(C)(C)[C@H]1C=C(C(=O)NCc2nc3ccccc3[nH]2)O[C@@H](OCc2ccc(CO)cc2)C1 |
| 0.603 µM | COc1ccc2[nH]c3nc(SCC(=O)Nc4ccc5c(c4)OCO5)nnc3c2c1 |
| 0.474 µM | O=C1[C@@H]2Cc3c([nH]c4ccccc34)C(c3cccc([N+](=O)[O-])c3)N2C(=O)CN1CCCO (some centres undefined) |
| 3.2 µM | O=C(N/C(=C\c1cccnc1)c1nc2ccccc2[nH]1)c1cccc(Br)c1 |
| 2.22 µM | O=C(CN1CCSC1=NCc1ccccc1)c1ccc(Cl)c(Cl)c1 |
| 0.755 µM | COc1ccc(CNC(=O)CSc2nnc3c(n2)[nH]c2ccc(F)cc23)cc1 |
| 3.47 µM | Cc1ccc(NC(=O)CN(C)C(=O)CCSc2ccc(F)cc2)cc1 |
| 1.95 µM | O=C(C[C@H]1C(=O)N(Cc2ccccc2)C[C@@H]1c1ccc(Br)cc1)Nc1ccc(Br)cc1 |

| IC50 | Structure (SMILES) |
| --- | --- |
| 1.5 µM | O=C(NCc1nc2ccccc2[nH]1)C1=C[C@@H](C2CC2)C[C@@H](OCc2ccc(CO)cc2)O1 |
| 0.949 µM | CC(CC(=O)Nc1cccc(Br)c1)=NNC(=O)c1ccc(O)cc1O |
| 1.06 µM | O=C(NCc1nc2ccccc2[nH]1)C1=C[C@@H](c2ccc(Br)cc2)C[C@@H](OCc2ccc(CO)cc2)O1 |
| 2.4 µM | O=C(NCc1nc2ccccc2[nH]1)C1=C[C@H](c2ccc(Br)cc2)C[C@H](OCc2ccc(CO)cc2)O1 |
| 0.577 µM | CC(=O)c1ccc(N2CCN(C(=O)CCCn3c(=O)[nH]c4ccc(Br)cc4c3=O)CC2)cc1 |
| 6.35 µM | CCOC(=O)N1CCC(Nc2c(Nc3ccc(F)cc3)c(=O)c2=O)CC1 |
| 0.0441 µM | COc1cccc(NC(=O)CSc2nnc3c(n2)[nH]c2ccc(C)cc23)c1 |
| 3.04 µM | O=C(NCc1nc2ccccc2[nH]1)C1=C[C@H](c2ccc3c(c2)OCO3)C[C@H](OCCCCO)O1 |
| 2.85 µM | O=C(NNC(=O)c1ccc(-n2cncn2)c([N+](=O)[O-])c1)c1ccc(Cl)cc1 |
| 1.1 µM | O=C(NCc1nc2ccccc2[nH]1)C1=C[C@@H](c2ccc3c(c2)OCO3)C[C@@H](OCCCCO)O1 |
| 0.6 µM | COc1ccccc1NS(=O)(=O)c1cccc(NC(=O)Nc2ccccc2)c1 |
| 6.25 µM | CCO[C@H]1OC(C(=O)NCc2nc3ccccc3[nH]2)=C[C@@H](c2ccc(Br)cc2)[C@@H]1CCCO |
| 0.438 µM | O=C1CC(N(CCc2ccccc2)C(=S)Nc2ccccc2)C(=O)N1c1ccc(Br)cc1 (centres undefined) |
| 0.297 µM | C[C@H](O)[C@@H]1C(=O)N2CCc3c([nH]c4ccccc34)[C@@H]2C[C@@H]1N(C)Cc1ccc2c(c1)OCO2 |
| 7.54 µM | Clc1ccc(OCCSCc2nc3ccccc3[nH]2)cc1 |
| 1.58 µM | O=C(NCc1nc2ccccc2[nH]1)C1=C[C@@H](c2ccccc2)C[C@@H](OCc2ccc(CO)cc2)O1 |
| 1.3 µM | O=C(Cn1cnc2ccccc21)Nc1cccc([N+](=O)[O-])c1 |
| 3.39 µM | CC(C)(C)[C@@H]1C=C(C(=O)NCc2nc3ccccc3[nH]2)O[C@H](OCc2ccc(CO)cc2)C1 |
| 5.54 µM | COc1ccc(OCC(O)CNC(=O)Nc2ccc(Cl)cc2)cc1 (centres undefined) |
| 0.641 µM | CC(C)OCCCN1CC(=O)N2C(c3cccc([N+](=O)[O-])c3)c3[nH]c4ccccc4c3C[C@H]2C1=O (some centres undefined) |
| 0.674 µM | O=C(NCc1nc2ccccc2[nH]1)C1=C[C@@H](c2ccc(Br)cc2)C[C@@H](OCCCCO)O1 |
| 2.33 µM | O=C(NCc1nc2ccccc2[nH]1)C1=C[C@@H](c2csc3ccccc23)C[C@@H](OCCCCO)O1 |
| 1.43 µM | O=C(CC=NOCc1ccc([N+](=O)[O-])cc1)Nc1ccc(Br)cc1 |
| 3.07 µM | O=C(CC(=O)Nc1cccc(Cl)c1)NN=Cc1ccccc1 |
| inactive | O=C1CC(SCc2nc3ccccc3[nH]2)C(=O)N1c1cccc(Cl)c1 (centres undefined) |
| 0.739 µM | O=C(NCc1nc2ccccc2[nH]1)C1=C[C@H](c2csc3ccccc23)C[C@H](OCCCCO)O1 |
| 2.41 µM | Brc1cnc2nc(SCc3nc4ccccc4[nH]3)[nH]c2c1 |
